Reference: US6355799B1, “Substituted benzene compounds, process for their preparation, and herbicidal and defoliant compositions containing them” (ISK Americas Incorporated, priority 1997, dated 2002)

Assays:
Type in all cases: in vivo
[1] = tested on: redroot pigweed (Amaranthus retroflexus, AMARE); experiment: Pre-emerge test, greenhouse herbicide activity screening; details: pre-emerge, 14 days after application, scale 0-100
Outline: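 Visual ratings on a 0-100 scale (0 no damage, 100 all plants dead) were taken at 14 days after treatment. Rates of 15-1000 g ai/ha in acetone, 187 l/ha, were sprayed onto soil one day after planting (pre-emerge) or onto 2-3 leaf plants with 0.25% v/v surfactant (post-emerge).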

[2] = tested on: barnyardgrass (Echinochloa crus-galli, ECHCG); experiment: as above; details: pre-emerge, 14 days after application, scale 0-100
Outline: (§1)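 Compounds in acetone were track-sprayed at 15-1000 g ai/ha (187 l/ha) on sandy loam pots: pre-emerge one day after seeding, post-emerge at 2-3 leaf stage with 0.25% v/v non-ionic surfactant. Phytotoxicity was rated 14 days later on a 0 (no damage) to 100 (complete death) scale.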

[3] = tested on: green foxtail (Setaria viridis, SETVI); experiment: as above; details: pre-emerge, 14 days after application, scale 0-100
Outline: as §1

[4] = tested on: ivyleaf morningglory (Ipomoea hederacea, IPOHE); experiment: as above; details: pre-emerge, 14 days after application, scale 0-100
Outline: as §1

[5] = tested on: johnsongrass (Sorghum halepense, SORHA); experiment: as above; details: pre-emerge, 14 days after application, scale 0-100
Outline: as §1

[6] = tested on: lambsquarters (Chenopodium album, CHEAL); experiment: as above; details: pre-emerge, 14 days after application, scale 0-100
Outline: as §1

[7] = tested on: large crabgrass (Digitaria sanguinalis, DIGSA); experiment: as above; details: pre-emerge, 14 days after application, scale 0-100
Outline: as §1

[8] = tested on: sicklepod (Cassia obtusifolia, CASOB); experiment: as above; details: pre-emerge, 14 days after application, scale 0-100
Outline: as §1

[9] = tested on: velvetleaf (Abutilon theophrasti, ABUTH); experiment: as above; details: pre-emerge, 14 days after application, scale 0-100
Outline: as §1

[10] = tested on: field corn (Zea mays L., var. Dekalb 535, CORN); experiment: Pre-emerge test, crop safety; details: pre-emerge, 14 days after application, scale 0-100
Outline: (§2)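 Applied at 15–1000 g ai/ha from acetone in 187 l/ha spray volume. Post-emergence applications included 0.25% v/v non-ionic surfactant and reached plants sown 8–21 days before. Pre-emergence applications were incorporated by surface watering. Efficacy or crop damage was rated on a 0–100 scale after 14 days.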

[11] = tested on: upland rice (Oryza sp., var. Tebonnet, RICE); experiment: Pre-emerge test, crop safety; details: pre-emerge, 14 days after application, scale 0-100
Outline: as §2

[12] = tested on: barnyardgrass (Echinochloa crus-galli, ECHCG); experiment: Post-emerge test, greenhouse herbicide activity screening; details: post-emerge, 14 days after application, rating scale 0-100
Outline: (§3)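 Fourteen days after spraying, crop and weed injury was graded visually from 0, no effect, to 100, every plant dead. Test substances were dissolved in acetone and applied at 15–1000 g ai/ha with a flat-fan nozzle. Application was either pre-emergence, one day after sowing, or post-emergence at the 2–3 leaf stage.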

[13] = tested on: green foxtail (Setaria viridis, SETVI); experiment: as above; details: post-emerge, 14 days after application, rating scale 0-100
Outline: as §3

[14] = tested on: ivyleaf morningglory (Ipomoea hederacea, IPOHE); experiment: as above; details: post-emerge, 14 days after application, rating scale 0-100
Outline: as §3

[15] = tested on: johnsongrass (Sorghum halepense, SORHA); experiment: as above; details: post-emerge, 14 days after application, rating scale 0-100
Outline: as §3

[16] = tested on: lambsquarters (Chenopodium album, CHEAL); experiment: as above; details: post-emerge, 14 days after application, rating scale 0-100
Outline: as §3

[17] = tested on: large crabgrass (Digitaria sanguinalis, DIGSA); experiment: as above; details: post-emerge, 14 days after application, rating scale 0-100
Outline: as §3

[18] = tested on: redroot pigweed (Amaranthus retroflexus, AMARE); experiment: as above; details: post-emerge, 14 days after application, rating scale 0-100
Outline: as §3

[19] = tested on: sicklepod (Cassia obtusifolia, CASOB); experiment: as above; details: post-emerge, 14 days after application, rating scale 0-100
Outline: as §3

[20] = tested on: velvetleaf (Abutilon theophrasti, ABUTH); experiment: as above; details: post-emerge, 14 days after application, rating scale 0-100
Outline: as §3

[21] = tested on: field corn (Zea mays L., var. Dekalb 535, CORN); experiment: Post-emerge test, crop safety; details: post-emerge, 14 days after application, rating scale 0-100
Outline: as §1

[22] = tested on: upland rice (Oryza sp., var. Tebonnet, RICE); experiment: Post-emerge test, crop safety; details: post-emerge, 14 days after application, rating scale 0-100
Outline: as §1

In the case of `COc1c(Cl)cc(F)c(-n2c(=O)cc(C(F)(F)F)n(C)c2=O)c1NC(=O)c1cc2ccccc2cc1C` [2-155], the “phytotoxicity rating AMARE” value ([1]; 63 g ai/ha) is reported as 100, the “phytotoxicity rating AMARE” value ([1]; 125 g ai/ha) is reported as 100 and the “phytotoxicity rating ECHCG” value ([2]; 63 g ai/ha) is reported as 50. The “phytotoxicity rating ECHCG” value ([2]; 125 g ai/ha) was 70, the “phytotoxicity rating SETVI” value ([3]; 63 g ai/ha) was 60 and the “phytotoxicity rating SETVI” value ([3]; 125 g ai/ha) was 95. For the same compound, the “phytotoxicity rating IPOHE” value ([4]; 63 g ai/ha) was 0, the “phytotoxicity rating IPOHE” value ([4]; 125 g ai/ha) was 40 and the “phytotoxicity rating SORHA” value ([5]; 63 g ai/ha) was 30. For the same compound, the “phytotoxicity rating SORHA” value ([5]; 125 g ai/ha) was 70, the “phytotoxicity rating CHEAL” value ([6]; 63 g ai/ha) was 100 and the “phytotoxicity rating CHEAL” value ([6]; 125 g ai/ha) was 100. For the same compound, the “phytotoxicity rating DIGSA” value ([7]; 63 g ai/ha) was 85, the “phytotoxicity rating DIGSA” value ([7]; 125 g ai/ha) was 100 and the “phytotoxicity rating CASOB” value ([8]; 63 g ai/ha) was 0. The “phytotoxicity rating CASOB” value ([8]; 125 g ai/ha) was 30, the “phytotoxicity rating ABUTH” value ([9]; 63 g ai/ha) was 100 and the “phytotoxicity rating ABUTH” value ([9]; 125 g ai/ha) was 100. The “phytotoxicity rating CORN (crop damage)” value ([10]; 63 g ai/ha) was 0, the “phytotoxicity rating CORN (crop damage)” value ([10]; 125 g ai/ha) was 15 and the “phytotoxicity rating RICE (crop damage)” value ([11]; 63 g ai/ha) was 30. For the same compound, the “phytotoxicity rating RICE (crop damage)” value ([11]; 125 g ai/ha) was 60, the ECHCG phytotoxicity rating ([12]; 63 g ai/ha) was 30 and the ECHCG phytotoxicity rating ([12]; 125 g ai/ha) was 60. The SETVI phytotoxicity rating ([13]; 63 g ai/ha) was 50, the SETVI phytotoxicity rating ([13]; 125 g ai/ha) was 70 and the IPOHE phytotoxicity rating ([14]; 63 g ai/ha) was 100. The IPOHE phytotoxicity rating ([14]; 125 g ai/ha) was 100, the SORHA phytotoxicity rating ([15]; 63 g ai/ha) was 30 and the SORHA phytotoxicity rating ([15]; 125 g ai/ha) was 50. The CHEAL phytotoxicity rating ([16]; 63 g ai/ha) was 100, the CHEAL phytotoxicity rating ([16]; 125 g ai/ha) was 100 and the DIGSA phytotoxicity rating ([17]; 63 g ai/ha) was 40. The DIGSA phytotoxicity rating ([17]; 125 g ai/ha) was 50, the AMARE phytotoxicity rating ([18]; 63 g ai/ha) was 100 and the AMARE phytotoxicity rating ([18]; 125 g ai/ha) was 100. The CASOB phytotoxicity rating ([19]; 63 g ai/ha) was 100, the CASOB phytotoxicity rating ([19]; 125 g ai/ha) was 100 and the ABUTH phytotoxicity rating ([20]; 63 g ai/ha) was 100. The ABUTH phytotoxicity rating ([20]; 125 g ai/ha) was 100, the “CORN phytotoxicity rating (crop damage)” value ([21]; 63 g ai/ha) was 70 and the “CORN phytotoxicity rating (crop damage)” value ([21]; 125 g ai/ha) was 90. For the same compound, the “RICE phytotoxicity rating (crop damage)” value ([22]; 63 g ai/ha) was 25 and the “RICE phytotoxicity rating (crop damage)” value ([22]; 125 g ai/ha) was 80.
